The values that follow are results of earlier work, collected in publication PMC11956011, “An Amazing 30-Year Journey around the DABO Family: A Medicinal Chemistry Lesson on a Versatile Class of Non-nucleoside HIV-1 Reverse Transcriptase Inhibitors” (Journal of Medicinal Chemistry, 2025).

Where two headings read alike, the source gives them in different places.

Data set [1] relates to HIV-1. On the set-up: method as in PMID 5787520. Conditions: 3.5 μM; MoI = 5 CCID50/cell; 40 days.
The subject of data set [2] is HIV-1. On the set-up: method as in PMID 8602869. Conditions: day 3 and 4 p.i.; read-out: p24 inhibition in PBMC-infected cells IC50.
The subject of data set [3] is HIV-1 RT (WT, recombinant). Conditions: Fig 4.
Data set [4] relates to MT-2 cells.
In data set [5] the test system is HIV-1. On the set-up: method as in PMID 8602869. The following applies: read-out: syncytia reduction assay in MT-2-infected cells IC50.
In data set [6] the test system is PBMC.
The subject of data set [7] is L100I HIV-1 RT.
In data set [8] the test system is L-697661-R-IIIB (Y181C). On the set-up: method as in PMID 9748354, PMID 9554867. Conditions: read-out: p24 inhibition in MT-4 infected cells, IC90: L-697661-R-IIIB (Y181C).
Data set [9] has as its system E233V HIV-1 RT. On the set-up: method as in PMID 9748354, PMID 9554867.
Data set [10] concerns R88703-R-IIIB (Y181C). Set-up: method as in PMID 9748354, PMID 9554867. Conditions: read-out: p24 inhibition in MT-4 infected cells, IC90: R88703-R-IIIB (Y181C).
Data set [11] deals with P236L HIV-1 RT. Set-up: method as in PMID 9748354, PMID 9554867.
The test system of data set [12] is Y188H HIV-1 RT. Set-up: method as in PMID 9748354, PMID 9554867.
Data set [13] concerns HIV-1 IIIB. Set-up: method as in PMID 9748354, PMID 9554867. Conditions: read-out: p24 inhibition in MT-4 infected cells, IC90: IIIB.
Data set [14] deals with DLV-R-MF (P236L). On the set-up: method as in PMID 9748354, PMID 9554867. The following applies: read-out: p24 inhibition in MT-4 infected cells, IC90: DLV-R-MF (P236L).
Data set [15] deals with Y181C HIV-1 RT. Set-up: method as in PMID 9748354, PMID 9554867.
For data set [16], the system named is DLV-R-IIIB (L100I). Set-up: method as in PMID 9748354, PMID 9554867. Conditions: read-out: p24 inhibition in MT-4 infected cells, IC90: DLV-R-IIIB (L100I).
The target of data set [17] is V106A HIV-1 RT. Conditions: Fig 4.
The subject of data set [18] is HIV-2ROD.
Data set [19] relates to E138K HIV-1 mutant strain. Conditions: Fig 12, in brackets.
Details of data set [20]: method as in doi:10.1039/c3md00247k. The following applies: mouse models.
On the set-up of data set [21]: method as in doi:10.1039/c3md00247k, PMID 21752202. The following applies: in vivo.

As for `Cc1c(C(C)c2c(F)cccc2F)nc(N(C)C)[nH]c1=O` (racemic) [compound 116], the “water solubility (in words)” value is on record as “scant water solubility”. In addition, the “HIV-1 replication in acutely infected cultures after 4 h treatment” value in [1] was “totally suppressed HIV-1 replication”.
In the case of `Nc1cc(Cl)nc(SCc2ccccc2)n1` [compound 19, 4-amino-2-(benzylthio)-6-chloropyrimidine], the figures for the IC50 in data set [2], in data set [3] (read-out: RT assay IC50) and in data set [5] were 100 to 1000 nM, 50 to 80 µM and 400 to 4000 nM, respectively. The “cytotoxicity in MT-2-infected cells” value in data set [4] was > 16 µM. Moreover, in [6], the “cytotoxicity in PBMC-infected cells” value was > 16 µM.
Consider `C[C@H](Sc1nc(N)cc(Cl)n1)c1cc2ccoc2cn1` [compound 21, (−)-6-chloro-2-[(1-furo[2,3-c]pyridin-5-ylethyl)thio]-4-pyrimidinamine], for which the IC50 in [7] was 39 nM; in [9], 17 nM; in data set [3] (read-out: RT assay, IC50: WT) it was 0.02 µM; in data set [11], 22 nM; in [12], 77 nM; in data set [15], 179 nM. Also, the IC90 is 1100 nM in data set [8]; 170 nM in data set [10]; 1 nM in data set [13]; 8 nM in [14]; 70 nM in [16].
As to `O=c1cc(Cc2ccccc2)nc(NCCCCO)[nH]1` [compound 23, 6-benzyl-N^2-(4-hydroxybutyl)isocytosine], the Ki in data set [7] (Fig 4) is 525 µM; in data set [17], 75 µM; in data set [3], 140 µM.
Consider `CCCN(C)c1nc(C(C)c2c(F)cccc2F)c(C)c(=O)[nH]1` (stereo not shown) [compound 119], for which the EC50 in [18] was 8.6 µM.
With `Cc1c(C(C#N)c2c(F)cccc2F)nc(SC(C)C)[nH]c1=O` (stereo not shown) [compound 153], the “Fold-resistance E138K (EC50 vs HIV-1IIIB)” value in data set [19] was 2.4. Further, in data set [20], the “oral bioavailability (in words)” value is given as “optimal oral bioavailability”. Further, the “acute toxicity (in words)” value in data set [21] is listed as “without acute toxicity”.
